One test addresses T1, CDK2 (Homo sapiens, UniProt P24941).
T1 construct: endogenous in cells; host or cells: MDA-MB-231
As to the kind of experiment: CDK protein degradation activity (Western blotting), CDK2. The following applies: MDA-MB-231 cells, 16 hours, Western blot. It is filed as cell-based. The method, then: (§1) In order to evaluate the CDK protein degradation activity of the compounds according to the present invention, the following experiment was conducted.
(§2) MDA-MB-231 cells were seeded at 5×10^5 cells per well in a 6-well plate. The next day, the compounds were treated in each well to achieve final concentrations of 100 nM, 1 μM, and 10 μM. For the control group, an equal amount of DMSO was treated in the well as the compound. After 16 hours of treatment, cells were collected, and cell lysates were prepared using Triton X-100 lysis buffer (50 mM HEPES, pH 7.5, 40 mM NaCl, 1% Triton X-100, 1 mM EDTA, 1 mM EGTA, 10 mM pyrophosphate, 10 mM β-glycerophosphate, 50 mM NaF, 1 mM NaVO4, protease inhibitor). Cell lysates were quantified and separated by size using sodium dodecyl sulfate-polyacrylamide gel electrophoresis (SDS-PAGE). Western blotting was then performed using antibodies that recognize CDK2, CDK9, and tubulin, respectively. The results obtained by Western blotting were quantitatively analyzed using the ImageJ program, and representative images according to the experimental results are shown in FIG. 1.

The target in a further test is T2, CDK9 (Homo sapiens, UniProt P50750).
T2 construct: endogenous in cells; host or cells: MDA-MB-231
Put plainly: CDK protein degradation activity (Western blotting), CDK9. It is filed as cell-based. Conditions: MDA-MB-231 cells, 16 hours, Western blot. The method, then: as §1, §2
In general terms: In western blotting, separated proteins are transferred to a membrane and probed.

We go through 11 compounds from patent publication US20260125382A1, “COMPOUNDS FOR INHIBITING OR DEGRADING CDK2 AND/OR CDK9 AND MEDICINAL USE THEREOF” (KOREA RESEARCH INSTITUTE OF CHEMICAL TECHNOLOGY, priority 2022, published 2026).

T2 sequence (P50750 whole entry): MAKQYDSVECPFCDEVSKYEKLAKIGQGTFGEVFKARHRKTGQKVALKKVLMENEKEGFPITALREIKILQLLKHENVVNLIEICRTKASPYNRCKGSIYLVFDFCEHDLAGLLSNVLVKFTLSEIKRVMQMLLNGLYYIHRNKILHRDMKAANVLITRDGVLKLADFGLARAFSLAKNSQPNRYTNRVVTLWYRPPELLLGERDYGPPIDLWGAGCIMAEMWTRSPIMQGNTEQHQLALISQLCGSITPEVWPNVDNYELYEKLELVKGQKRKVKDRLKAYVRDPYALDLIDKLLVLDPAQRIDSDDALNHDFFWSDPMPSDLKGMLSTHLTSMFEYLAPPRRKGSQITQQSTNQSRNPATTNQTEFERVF

As for `Cc1cccc(C(=O)N[C@H]2C[C@H](n3cnc4c(NCCCN5CCN(C(=O)CNc6ccc7c(c6)C(=O)N([C@@H]6CCC(=O)NC6=O)C7=O)CC5)ncnc43)C2)n1` [Compound 141, N-((1r,3r)-3-(6-((3-(4-((2-(2,6-dioxopiperidin-3-yl)-1,3-dioxoisoindolin-5-yl)glycyl)piperazin-1-yl)propyl)amino)-9H-purin-9-yl)cyclobutyl)-6-methylpicolinamide], at CDK2, the “Enzyme degradation CDK2 (% remaining) @ 0.1 μM” value is on record as 70%, the “Enzyme degradation CDK2 (% remaining) @ 1 μM” value came out at 50% and the “Enzyme degradation CDK2 (% remaining) @ 10 μM” value came out at 60%. Moreover, on CDK9, the “Enzyme degradation CDK9 (% remaining) @ 0.1 μM” value was 90%, the “Enzyme degradation CDK9 (% remaining) @ 1 μM” value is given as 80% and the “Enzyme degradation CDK9 (% remaining) @ 10 μM” value was 50%.

For `O=C1CC[C@H](N2C(=O)c3ccc(N4CCC(CCCN5CCN(c6ccc(Nc7ncnc8c7ncn8C7CC(NC(=O)Cc8ccccc8)C7)cc6)CC5)CC4)cc3C2=O)C(=O)N1` (stereo partly drawn) [Compound 262, N-((1s,3s)-3-(6-((4-(4-(3-(1-(2-(2,6-dioxopiperidin-3-yl)-1,3-dioxoisoindolin-5-yl)piperidin-4-yl)propyl)piperazin-1-yl)phenyl)amino)-9H-purin-9-yl)cyclobutyl)-2-phenylacetamide], on CDK2, the “Enzyme degradation CDK2 (% remaining) @ 0.1 μM” value was found to be 70%, the “Enzyme degradation CDK2 (% remaining) @ 1 μM” value was determined as 90% and the “Enzyme degradation CDK2 (% remaining) @ 10 μM” value was found to be 100%. Also, on CDK9, the “Enzyme degradation CDK9 (% remaining) @ 0.1 μM” value came to 40%, the “Enzyme degradation CDK9 (% remaining) @ 1 μM” value amounted to 30% and the “Enzyme degradation CDK9 (% remaining) @ 10 μM” value is listed as 10%.

For the compound `O=C1CCC(c2cccc(OCC(=O)N3CCC4(CC(N5CCN(c6ccc(Nc7ncnc8c7ncn8[C@H]7C[C@@H](NC(=O)Cc8ccccc8)C7)cc6)CC5)C4)C3)c2)C(=O)N1` (stereo partly drawn) [Compound 269, N-((1s,3s)-3-(6-((4-(4-(6-(2-(3-(2,6-dioxopiperidin-3-yl)phenoxy)acetyl)-6-azaspiro[3.4]octan-2-yl)piperazin-1-yl)phenyl)amino)-9H-purin-9-yl)cyclobutyl)-2-phenylacetamide], at CDK2, the “Enzyme degradation CDK2 (% remaining) @ 0.1 μM” value is recorded as 10/10/10%, the “Enzyme degradation CDK2 (% remaining) @ 1 μM” value is 10/10/10% and the “Enzyme degradation CDK2 (% remaining) @ 10 μM” value is listed as 10/10/10%. On CDK9, the “Enzyme degradation CDK9 (% remaining) @ 0.1 μM” value came to 30%, the “Enzyme degradation CDK9 (% remaining) @ 1 μM” value worked out at 10% and the “Enzyme degradation CDK9 (% remaining) @ 10 μM” value is on record as 10%.

Regarding `O=C1CC[C@H](N2C(=O)c3ccc(N4CCC(CN5CCC(CCNc6ncnc7c6ncn7C6CC(NC(=O)Cc7ccccc7)C6)CC5)CC4)cc3C2=O)C(=O)N1` (stereo partly drawn) [Compound 423, N-((1s,3s)-3-(6-((2-(1-((1-(2-(2,6-dioxopiperidin-3-yl)-1,3-dioxoisoindolin-5-yl)piperidin-4-yl)methyl)piperidin-4-yl)ethyl)amino)-9H-purin-9-yl)cyclobutyl)-2-phenylacetamide], at CDK2, the “Enzyme degradation CDK2 (% remaining) @ 0.1 μM” value is 30%, the “Enzyme degradation CDK2 (% remaining) @ 1 μM” value turned out to be 20% and the “Enzyme degradation CDK2 (% remaining) @ 10 μM” value worked out at 20%. Besides, at CDK9, the “Enzyme degradation CDK9 (% remaining) @ 0.1 μM” value amounted to 20%, the “Enzyme degradation CDK9 (% remaining) @ 1 μM” value came to 10% and the “Enzyme degradation CDK9 (% remaining) @ 10 μM” value was found to be 10%.

For `Cc1cccc(C(=O)N[C@H]2C[C@@H](n3cnc4c(NCc5cccc(OCC6CCN(C(=O)CNc7ccc8c(c7)C(=O)N(C7CCC(=O)NC7=O)C8=O)CC6)c5)ncnc43)C2)n1` (stereo partly drawn) [Compound 96, N-((1s,3s)-3-(6-((3-((1-((2-(2,6-dioxopiperidin-3-yl)-1,3-dioxoisoindolin-5-yl)glycyl)piperidin-4-yl)methoxy)benzyl)amino)-9H-purin-9-yl)cyclobutyl)-6-methylpicolinamide], at CDK2, the “Enzyme degradation CDK2 (% remaining) @ 0.1 μM” value is 60%, the “Enzyme degradation CDK2 (% remaining) @ 1 μM” value worked out at 40% and the “Enzyme degradation CDK2 (% remaining) @ 10 μM” value amounted to 50%. Further, at CDK9, the “Enzyme degradation CDK9 (% remaining) @ 0.1 μM” value turned out to be 10%, the “Enzyme degradation CDK9 (% remaining) @ 1 μM” value is reported as 0% and the “Enzyme degradation CDK9 (% remaining) @ 10 μM” value is on record as 0%.

On to `O=C1CC[C@H](N2C(=O)c3ccc(N4CC(C(=O)N5CCC6(CC5)CC(N5CCN(c7ccc(Nc8ncnc9c8ncn9C8CC(NC(=O)c9c(Cl)cccc9Cl)C8)cc7)CC5)C6)C4)cc3C2=O)C(=O)N1` (stereo partly drawn) [Compound 383, 2,6-dichloro-N-((1s,3s)-3-(6-((4-(4-(7-(1-(2-(2,6-dioxopiperidin-3-yl)-1,3-dioxoisoindolin-5-yl)azetidin-3-carbonyl)-7-azaspiro[3.5]nonan-2-yl)piperazin-1-yl)phenyl)amino)-9H-purin-9-yl)cyclobutyl)benzamide], for which, on CDK2, the “Enzyme degradation CDK2 (% remaining) @ 0.1 μM” value was 40/40/40%, the “Enzyme degradation CDK2 (% remaining) @ 1 μM” value is recorded as 40/40/40% and the “Enzyme degradation CDK2 (% remaining) @ 10 μM” value is on record as 40/40/40%. Further, on CDK9, the “Enzyme degradation CDK9 (% remaining) @ 0.1 μM” value is 0/0/0%, the “Enzyme degradation CDK9 (% remaining) @ 1 μM” value is recorded as 0/0/0% and the “Enzyme degradation CDK9 (% remaining) @ 10 μM” value was 0/0/0%.

As to `Cc1cccc(C(=O)NC2CC(n3cnc4c(NCc5ccc(OCC6CCN(C(=O)COc7cccc8c7C(=O)N([C@H]7CCC(=O)NC7=O)C8=O)CC6)cc5)ncnc43)C2)n1` (stereo partly drawn) [Compound 107, N-((1s,3s)-3-(6-((4-((1-(2-((2-(2,6-dioxopiperidin-3-yl)-1,3-dioxoisoindolin-4-yl)oxy)acetyl)piperidin-4-yl)methoxy)benzyl)amino)-9H-purin-9-yl)cyclobutyl)-6-methylpicolinamide], on CDK2, the “Enzyme degradation CDK2 (% remaining) @ 0.1 μM” value came out at 60%, the “Enzyme degradation CDK2 (% remaining) @ 1 μM” value is given as 50% and the “Enzyme degradation CDK2 (% remaining) @ 10 μM” value was determined as 100%. Further, at CDK9, the “Enzyme degradation CDK9 (% remaining) @ 0.1 μM” value was determined as 90%, the “Enzyme degradation CDK9 (% remaining) @ 1 μM” value was 20% and the “Enzyme degradation CDK9 (% remaining) @ 10 μM” value was determined as 0%.

For the compound `Cc1cccc(C(=O)NC2CC(n3cnc4c(Nc5ccc(N6CCN(C(=O)COc7ccc8c(c7)C(=O)N([C@H]7CCC(=O)NC7=O)C8=O)CC6)cc5)ncnc43)C2)n1` (stereo partly drawn) [Compound 84, N-((1s,3s)-3-(6-((4-(4-(2-((2-(2,6-dioxopiperidin-3-yl)-1,3-dioxoisoindolin-5-yl)oxy)acetyl)piperazin-1-yl)phenyl)amino)-9H-purin-9-yl)cyclobutyl)-6-methylpicolinamide], on CDK2, the “Enzyme degradation CDK2 (% remaining) @ 0.1 μM” value is listed as 50%, the “Enzyme degradation CDK2 (% remaining) @ 1 μM” value was 30% and the “Enzyme degradation CDK2 (% remaining) @ 10 μM” value is 20%. In addition, on CDK9, the “Enzyme degradation CDK9 (% remaining) @ 0.1 μM” value is reported as 70%, the “Enzyme degradation CDK9 (% remaining) @ 1 μM” value is given as 30% and the “Enzyme degradation CDK9 (% remaining) @ 10 μM” value amounted to 10%.

For the compound `O=C(COc1cccc2c1C(=O)N(C1CCC(=O)NC1=O)C2=O)NCC1CCC(CN2CCN(c3ccc(Nc4ncnc5c4ncn5C4CC(NC(=O)Cc5ccccc5)C4)cc3)CC2)CC1` (stereo not drawn) [Compound 219, 2-((2-(2,6-dioxopiperidin-3-yl)-1,3-dioxoisoindolin-4-yl)oxy)-N-(((1r,4r)-4-((4-(4-((9-((1s,3s)-3-(2-phenylacetamido)cyclobutyl)-9H-purin-6-yl)amino)phenyl)piperazin-1-yl)methyl)cyclohexyl)methyl)acetamide], at CDK2, the “Enzyme degradation CDK2 (% remaining) @ 0.1 μM” value turned out to be 80%, the “Enzyme degradation CDK2 (% remaining) @ 1 μM” value worked out at 50% and the “Enzyme degradation CDK2 (% remaining) @ 10 μM” value was 50%. Moreover, on CDK9, the “Enzyme degradation CDK9 (% remaining) @ 0.1 μM” value is reported as 100%, the “Enzyme degradation CDK9 (% remaining) @ 1 μM” value was determined as 10% and the “Enzyme degradation CDK9 (% remaining) @ 10 μM” value was determined as 0%.

Turning to `O=C1CC[C@@H](c2ccc(OCC(=O)N3CCC(CN4CCN(c5ccc(Nc6ncnc7c6ncn7C6CC(NC(=O)c7cccc(C(F)(F)F)n7)C6)cc5)CC4)CC3)cc2)C(=O)N1` (stereo partly drawn) [Compound 436, N-((1s,3s)-3-(6-((4-(4-((1-(2-(4-(2,6-dioxopiperidin-3-yl)phenoxy)acetyl)piperidin-4-yl)methyl)piperazin-1-yl)phenyl)amino)-9H-purin-9-yl)cyclobutyl)-6-(trifluoromethyl)picolinamide], on CDK2, the “Enzyme degradation CDK2 (% remaining) @ 0.1 μM” value is 30/30/30%, the “Enzyme degradation CDK2 (% remaining) @ 1 μM” value was 30/30/30% and the “Enzyme degradation CDK2 (% remaining) @ 10 μM” value is 30/30/30%. On CDK9, the “Enzyme degradation CDK9 (% remaining) @ 0.1 μM” value is recorded as 10/10/10%, the “Enzyme degradation CDK9 (% remaining) @ 1 μM” value is given as 10/10/10% and the “Enzyme degradation CDK9 (% remaining) @ 10 μM” value was 10/10/10%.

As for `O=C1CC[C@H](N2C(=O)c3ccc(N4CCC(C(=O)N5CCC(CN6CCN(c7ccc(Nc8ncnc9c8ncn9C8CC(NC(=O)c9c(Cl)cccc9Cl)C8)cc7)CC6)CC5)CC4)cc3C2=O)C(=O)N1` (stereo partly drawn) [Compound 395, 2,6-dichloro-N-((1s,3s)-3-(6-((4-(4-((1-(1-(2-(2,6-dioxopiperidin-3-yl)-1,3-dioxoisoindolin-5-yl)piperidin-4-carbonyl)piperidin-4-yl)methyl)piperazin-1-yl)phenyl)amino)-9H-purin-9-yl)cyclobutyl)benzamide], on CDK2, the “Enzyme degradation CDK2 (% remaining) @ 0.1 μM” value is recorded as 20/20/20%, the “Enzyme degradation CDK2 (% remaining) @ 1 μM” value is listed as 20/20/20% and the “Enzyme degradation CDK2 (% remaining) @ 10 μM” value is listed as 20/20/20%. Moreover, on CDK9, the “Enzyme degradation CDK9 (% remaining) @ 0.1 μM” value is on record as 0/0/0%, the “Enzyme degradation CDK9 (% remaining) @ 1 μM” value was 0/0/0% and the “Enzyme degradation CDK9 (% remaining) @ 10 μM” value is recorded as 0/0/0%.
